Experimental data: patent US20090221829A1 (priority 2005, published 2009)

System: Candida albicans(KCTC 1940), Aspergillus niger (ATCC 9642) and Saccharomyces cerevisiae
Experiment: Relative antifungal activity by agar dilution method (vs Miconazole);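 note: scores 5 to 7 mean a lower fungicidal concentration than Miconazole so higher is more potent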
Assay type: cell-based
Excerpt: Novel compounds represented by the above chemical formula (I), and the relative activities in accordance with the agar dilution method in Sabouraud dextrose agar media, Czapek agar media and Yeast Extract-Peptone-Dextrose agar media for Candida albicans(KCTC 1940), Aspergillus niger (ATCC 9642) and Saccharomyces cerevisiae are described respectively in following Table 1.

[1] = agar dilution method, fungicidal concentration relative to control drug Miconazole (=4)
[2] = antifungal activity relative to Miconazole, agar dilution

Row | Structure (SMILES) | Relative Activity [1] | Relative Activity [2]
1 | CCCCCCCCCCCCCCCC1=[N+](Cc2ccccc2F)CCc2cc(OC)c(OC)cc21.[Cl-] [Compound No. 13, 1-n-pentadecyl-2-(2-fluorophenyl)methyl-3,4-dihydro-6,7-dimethoxyisoquinolinium chloride] | 2 | 
2 | CCCCCCC1=[N+](Cc2ccccc2Cl)CCc2cc(OC)c(OC)cc21.[Cl-] [Compound No. 51, 1-n-hexyl-2-(2-chlorophenyl)methyl-3,4-dihydro-6,7-dimethoxyisoquinolinium chloride] | 4 | 
3 | COc1cc2cc[n+](Cc3c(F)cccc3Cl)cc2cc1OC.[Cl-] [Compound No. 141, 2-(2-chloro-6-fluorophenyl)methyl-6,7-dimethoxyisoquinolinium chloride] |  | 6
4 | COc1cc2c(cc1OC)C(CCc1ccc(C(C)(C)C)cc1)=[N+](Cc1ccccc1F)CC2 [Compound No. 124, 1-(2-(4-t-butylphenyl))ethyl-2-(2-fluorophenyl)methyl-3,4-dihydro-6,7-dimethoxyisoquinolinium chloride] | 2 | 
5 | CCCCc1ccc(C2=[N+](Cc3ccccc3F)CCc3cc(OC)c(OC)cc32)cc1.[Cl-] [Compound No. 21, 1-(4-n-butylphenyl)-2-(2-fluorophenyl)methyl-3,4-dihydro-6,7-dimethoxyisoquinolinium chloride] | 6 | 
6 | CCCCCCCCCCCCCCCC1=[N+](Cc2ccc(F)cc2)CCc2cc(OC)c(OC)cc21.[Cl-] [Compound No. 38, 1-n-pentadecyl-2-(4-fluorophenyl)methyl-3,4-dihydro-6,7-dimethoxyisoquinolinium chloride] | 1 | 
7 | CC(C)(C)c1ccc(C2=[N+](Cc3ccc(C(F)(F)F)cc3)CCc3cc4c(cc32)OCO4)cc1.[Cl-] [Compound No. 110, 1-(4-t-butylphenyl)-2-(4-trifluoromethylphenyl)methyl-3,4-dihydro-6,7-methylenedioxyisoquinolinium chloride] | 6 | 
8 | CCCCCCCCCCCc1c2cc(OC)c(OC)cc2cc[n+]1Cc1ccc(C(C)(C)C)cc1.[Cl-] [Compound No. 146, 1-undecyl-2-(4-t-butylphenyl)methyl-6,7-dimethoxyisoquinolinium chloride] |  | 2
9 | COc1cc2c(cc1OC)C(c1ccc(C(C)(C)C)cc1)=[N+](Cc1c(F)cccc1Cl)CC2.[Cl-] [Compound No. 70, 1-(4-t-butylphenyl)-2-(2-chloro-6-fluorophenyl)methyl-3,4-dihydro-6,7-dimethoxyisoquinolinium chloride] | 6 | 
10 | CCCCCCCCCCCCCCCC1=[N+](Cc2ccc(C(F)(F)F)cc2)CCc2cc(OC)c(OC)cc21.[Cl-] [Compound No. 30, 1-n-pentadecyl-2-(4-trifluoromethylphenyl)methyl-3,4-dihydro-6,7-dimethoxyisoquinolinium chloride] | 1 | 
11 | COc1cc2c(cc1OC)C(C)=[N+](Cc1ccc(C(F)(F)F)cc1)CC2.[Cl-] [Compound No. 26, 1-methyl-2-(4-trifluoromethylphenyl)methyl-3,4-dihydro-6,7-dimethoxyisoquinolinium chloride] | 6 | 
12 | CCCCCCCC1=[N+](Cc2cc(Br)c(OC)c(OC)c2)CCc2cc(OC)c(OC)cc21.[Cl-] [Compound No. 79, 1-n-heptyl-2-(3-bromo-4,5-dimethoxyphenyl)methyl-3,4-dihydro-6,7-dimethoxyisoquinolinium chloride] | 5 | 
13 | COc1cc2c(cc1OC)C(c1ccccc1F)=[N+](Cc1ccc(F)c(F)c1)CC2.[Cl-] [Compound No. 47, 1-(2-fluorophenyl)-2-(3,4-difluorophenyl)methyl-3,4-dihydro-6,7-dimethoxyisoquinolinium chloride] | 6 | 
14 | CC(C)(C)c1ccc(C2=[N+](Cc3ccc(F)c(F)c3)CCc3cc4c(cc32)OCO4)cc1.[Cl-] [Compound No. 114, 1-(4′-t-butylphenyl)-2-(3,4-difluorophenyl)methyl-3,4-dihydro-6,7-methylenedioxyisoquinolinium chloride] | 6 | 
15 | COc1cc2c(cc1OC)C(c1ccccc1F)=[N+](Cc1ccccc1F)CC2.[Cl-] [Compound No. 14, 1-(2-fluorophenyl)-2-(2-fluorophenyl)methyl-3,4-dihydro-6,7-dimethoxyisoquinolinium chloride] | 6 | 
16 | COc1ccc2c(c1)CC[N+](Cc1ccccc1F)=C2c1ccc(C(C)(C)C)cc1.[Cl-] [Compound No. 91, 1-(4-t-butylphenyl)-2-(2-fluorophenyl)methyl-3,4-dihydro-6-methoxyisoquinolinium chloride] | 6 | 

Row | Structure (SMILES) | Relative Activity [1] | Relative Activity [2]
17 | CCCC1=[N+](Cc2ccc(C(C)(C)C)cc2)CCc2cc(OC)c(OC)cc21.[Cl-] [Compound No. 123, 1-propyl-2-(4-t-butylphenyl)methyl-3,4-dihydro-6,7-dimethoxyisoquinolinium chloride] | 6 | 
18 | COc1cc2c(cc1OC)C(c1ccc(C(C)(C)C)cc1)=[N+](Cc1ccccc1[N+](=O)[O-])CC2.[Cl-] [Compound No. 75, 1-(4-t-butylphenyl)-2-(2-nitrophenyl)methyl-3,4-dihydro-6,7-dimethoxyisoquinolinium chloride] | 6 | 
19 | CCCCCCCC1=[N+](Cc2ccccc2F)CCc2cc(OC)ccc21.[Cl-] [Compound No. 87, 1-n-heptyl-2-(2-fluorophenyl)methyl-3,4-dihydro-6-methoxyisoquinolinium chloride] | 5 | 
20 | CCC1=[N+](Cc2ccccc2F)CCc2cc(OC)ccc21.[Cl-] [Compound No. 81, 1-ethyl-2-(2-fluorophenyl)methyl-3,4-dihydro-6-methoxyisoquinolinium chloride] | 6 | 
21 | CCCCCCCCCCCC1=[N+](Cc2ccccc2Cl)CCc2cc(OC)c(OC)cc21.[Cl-] [Compound No. 53, 1-n-undecyl-2-(2-chlorophenyl)methyl-3,4-dihydro-6,7-dimethoxyisoquinolinium chloride] | 2 | 
22 | COc1cc2c(cc1OC)C(C)=[N+](Cc1c(F)cccc1Cl)CC2.[Cl-] [Compound No. 64, 1-methyl-2-(2-chloro-6-fluorophenyl)methyl-3,4-dihydro-6,7-dimethoxyisoquinolinium chloride] | 6 | 
23 | CCCCCCCCCCCC1=[N+](Cc2ccc(O)c([N+](=O)[O-])c2)CCc2cc(OC)c(OC)cc21.[Cl-] [Compound No. 77, 1-n-undecyl-2-(4-hydroxy-3-nitrophenyl)methyl-3,4-dihydro-6,7-dimethoxyisoquinolinium chloride] | 2 | 
24 | CCCCCC1=[N+](Cc2ccc(OC)cc2)CCc2cc(OC)c(OC)cc21.[Cl-] [Compound No. 34, 1-n-pentyl-2-(4-methoxyphenyl)methyl-3,4-dihydro-6,7-dimethoxyisoquinolinium chloride] | 4 | 
25 | CCCCCCCCCCCC1=[N+](Cc2ccc(C(F)(F)F)cc2)CCc2cc(F)ccc21.[Cl-] [Compound No. 137, 1-undecyl-2-(4-trifluoromethylphenyl)methyl-3,4-dihydro-6-fluoro isoquinolinium chloride] | 1 | 
26 | CCCCCCCC1=[N+](Cc2ccc(C(F)(F)F)cc2)CCc2cc3c(cc21)OCO3.[Cl-] [Compound No. 108, 1-n-heptyl-2-(4-trifluoromethylphenyl)methyl-3,4-dihydro-6,7-methylenedioxyisoquinolinium chloride] | 4 | 
27 | CCCCCCC1=[N+](Cc2ccc(F)c(F)c2)CCc2cc(OC)c(OC)cc21.[Cl-] [Compound No. 42, 1-n-hexyl-2-(3,4-difluorophenyl)methyl-3,4-dihydro-6,7-dimethoxyisoquinolinium chloride] | 4 | 
28 | CCCCCCCC1=[N+](Cc2ccccc2[N+](=O)[O-])CCc2cc(OC)c(OC)cc21.[Cl-] [Compound No. 73, 1-n-heptyl-2-(2-nitrophenyl)methyl-3,4-dihydro-6,7-dimethoxyisoquinolinium chloride] | 5 | 
29 | CCCCCCCCCCCC1=[N+](Cc2ccc(OC)cc2)CCc2cc(OC)c(OC)cc21.[Cl-] [Compound No. 37, 1-n-undecyl-2-(4-methoxyphenyl)methyl-3,4-dihydro-6,7-dimethoxyisoquinolinium chloride] | 2 | 
30 | CCCCCCCCCCCCCCCC1=[N+](Cc2ccc(C(F)(F)F)cc2)CCc2cc3c(cc21)OCO3.[Cl-] [Compound No. 109, 1-n-pentadecyl-2-(4-trifluoromethylphenyl)methyl-3,4-dihydro-6,7-methylenedioxyisoquinolinium chloride] | 1 | 
31 | CCCCCCC1=[N+](Cc2c(F)cccc2F)CCc2cc(OC)c(OC)cc21.[Cl-] [Compound No. 58, 1-n-hexyl-2-(2,6-difluorophenyl)methyl-3,4-dihydro-6,7-dimethoxyisoquinolinium chloride] | 4 | 
32 | COc1cc2c(cc1OC)C(c1ccc(C(C)(C)C)cc1)=[N+](Cc1ccc(C(F)(F)F)cc1)CC2.[Cl-] [Compound No. 32, 1-(4-t-butylphenyl)-2-(4-trifluoromethylphenyl)methyl-3,4-dihydro-6,7-dimethoxyisoquinolinium chloride] | 6 | 
